Residues, ends and D or L forms follow the SMILES beside them.
Columns and labels:
[1] = target: T1, Orexin receptor type 2 (Homo sapiens, UniProt O43614); assay: Effective agonist concentration to the human Orexin receptor type 2 was determined using the Xlfit program; type: functional
T1 sequence (O43614 whole entry): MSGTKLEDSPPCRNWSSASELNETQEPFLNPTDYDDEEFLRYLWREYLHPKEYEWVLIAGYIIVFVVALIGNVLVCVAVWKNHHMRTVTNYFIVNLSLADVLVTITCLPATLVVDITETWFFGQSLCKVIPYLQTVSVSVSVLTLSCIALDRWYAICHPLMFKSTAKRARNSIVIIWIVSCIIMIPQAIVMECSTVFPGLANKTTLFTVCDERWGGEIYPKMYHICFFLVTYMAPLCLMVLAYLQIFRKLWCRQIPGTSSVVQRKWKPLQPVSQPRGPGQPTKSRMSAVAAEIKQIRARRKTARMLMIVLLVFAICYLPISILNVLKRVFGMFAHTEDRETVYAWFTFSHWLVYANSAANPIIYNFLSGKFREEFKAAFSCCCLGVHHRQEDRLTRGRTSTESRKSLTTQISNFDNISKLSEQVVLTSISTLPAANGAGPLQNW

[2] = Ratio of orexin-1 receptor to orexin-2 receptor in human
[3] = target: T2, Orexin/Hypocretin receptor type 1 (Homo sapiens, UniProt O43613); assay: Effective agonist concentration to human orexin receptor type 1 determined using the Xlfit program; type: functional
T2 sequence (O43613 whole entry): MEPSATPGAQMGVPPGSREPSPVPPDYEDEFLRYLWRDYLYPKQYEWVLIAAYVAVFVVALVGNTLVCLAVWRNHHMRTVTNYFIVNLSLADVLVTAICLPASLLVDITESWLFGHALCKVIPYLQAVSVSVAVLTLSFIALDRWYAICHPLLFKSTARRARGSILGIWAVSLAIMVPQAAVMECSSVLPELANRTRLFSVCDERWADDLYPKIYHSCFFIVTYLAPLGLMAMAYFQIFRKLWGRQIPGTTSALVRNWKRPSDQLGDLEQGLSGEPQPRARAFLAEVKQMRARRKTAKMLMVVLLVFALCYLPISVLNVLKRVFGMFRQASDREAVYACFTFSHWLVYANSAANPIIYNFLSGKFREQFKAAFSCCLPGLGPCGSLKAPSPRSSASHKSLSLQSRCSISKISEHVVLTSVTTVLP

Work on `CC[C@H](C)[C@H](NC(=O)CNC(=O)[C@H](C)NC(=O)[C@H](C)NC(=O)[C@H](Cc1c[nH]cn1)NC(=O)[C@H](CC(N)=O)NC(=O)CNC(=O)[C@H](CO)NC(=O)[C@H](C)NC(=O)[C@H](CCC(N)=O)NC(=O)[C@H](CC(C)C)NC(=O)[C@H](CC(C)C)NC(=O)[C@H](CCCN=C(N)N)NC(=O)[C@H](CCC(N)=O)NC(=O)[C@H](CC(C)C)NC(=O)[C@H](CCCN=C(N)N)NC(=O)CNC(=O)[C@H](CCC(N)=O)NC(=O)[C@H](CC(C)C)NC(=O)CN)C(=O)N[C@@H](CC(C)C)C(=O)N[C@H](C(=O)N[C@@H](C)C(=O)O)[C@@H](C)O` (H-GLQGRLQRLLQASGNHAAGILTA-OH) yielded an EC50 [1] of 0.75 µM, a Ratio [2] of 6.5 and an EC50 [3] of 4.84 µM.

With `CC[C@H](C)[C@H](NC(=O)CNC(=O)[C@H](C)NC(=O)[C@H](C)NC(=O)[C@H](Cc1c[nH]cn1)NC(=O)[C@H](CC(N)=O)NC(=O)CNC(=O)[C@H](CO)NC(=O)[C@H](C)NC(=O)[C@H](CCC(N)=O)NC(=O)[C@H](CC(C)C)NC(=O)[C@H](CC(C)C)NC(=O)[C@H](CCCN=C(N)N)NC(=O)[C@H](CCC(N)=O)NC(=O)[C@H](CC(C)C)NC(=O)[C@H](CCCN=C(N)N)NC(=O)CNC(=O)[C@H](CCC(N)=O)NC(=O)[C@H](CC(C)C)NC(=O)CN)C(=O)N[C@@H](CC(C)C)C(=O)N[C@H](C(=O)N1CCC[C@H]1C(=O)O)[C@@H](C)O` (H-GLQGRLQRLLQASGNHAAGILTP-OH) the EC50 [1] was 3.63 µM, the Ratio [2] was > 275 and the EC50 [3] was > 1000 µM.

`CC[C@H](C)[C@H](NC(=O)CNC(=O)[C@H](C)NC(=O)[C@H](C)NC(=O)[C@H](Cc1c[nH]cn1)NC(=O)[C@H](CC(N)=O)NC(=O)CNC(=O)[C@H](CO)NC(=O)[C@H](C)NC(=O)[C@H](CCC(N)=O)NC(=O)[C@H](CC(C)C)NC(=O)[C@H](CC(C)C)NC(=O)[C@H](CCCN=C(N)N)NC(=O)[C@H](CCC(N)=O)NC(=O)[C@H](CC(C)C)NC(=O)[C@H](CCCN=C(N)N)NC(=O)CNC(=O)[C@H](CCC(N)=O)NC(=O)[C@H](CC(C)C)NC(=O)CN)C(=O)N1CCC[C@H]1C(=O)N[C@H](C(=O)N[C@@H](CCSC)C(=O)O)[C@@H](C)O` (H-GLQGRLQRLLQASGNHAAGIPTM-OH) gave an EC50 [1] of 0.63 µM, a Ratio [2] of 13.9 and an EC50 [3] of 8.77 µM.

In the case of `CC[C@H](C)[C@H](NC(=O)[C@@H]1CCCN1C(=O)[C@H](C)NC(=O)[C@H](C)NC(=O)[C@H](Cc1c[nH]cn1)NC(=O)[C@H](CC(N)=O)NC(=O)CNC(=O)[C@H](CO)NC(=O)[C@H](C)NC(=O)[C@H](CCC(N)=O)NC(=O)[C@H](CC(C)C)NC(=O)[C@H](CC(C)C)NC(=O)[C@H](CCCN=C(N)N)NC(=O)[C@H](CCC(N)=O)NC(=O)[C@H](CC(C)C)NC(=O)[C@H](CCCN=C(N)N)NC(=O)CNC(=O)[C@H](CCC(N)=O)NC(=O)[C@H](CC(C)C)NC(=O)CN)C(=O)N[C@@H](CC(C)C)C(=O)N[C@H](C(=O)N[C@@H](CCSC)C(=O)O)[C@@H](C)O` (H-GLQGRLQRLLQASGNHAAPILTM-OH), the EC50 [1] is reported as 9.43 µM, the Ratio [2] is reported as > 105 and the EC50 [3] is reported as > 1000 µM.

In the case of `CC[C@H](C)[C@H](NC(=O)CNC(=O)[C@H](C)NC(=O)[C@H](C)NC(=O)[C@H](Cc1c[nH]cn1)NC(=O)[C@H](CC(N)=O)NC(=O)CNC(=O)[C@H](CO)NC(=O)[C@H](C)NC(=O)[C@H](CCC(N)=O)NC(=O)[C@@H]1CCCN1C(=O)[C@H](CC(C)C)NC(=O)[C@H](CCCN=C(N)N)NC(=O)[C@H](CCC(N)=O)NC(=O)[C@H](CC(C)C)NC(=O)[C@H](CCCN=C(N)N)NC(=O)CNC(=O)[C@H](CCC(N)=O)NC(=O)[C@H](CC(C)C)NC(=O)CN)C(=O)N[C@@H](CC(C)C)C(=O)N[C@H](C(=O)N[C@@H](CCSC)C(=O)O)[C@@H](C)O` (H-GLQGRLQRLPQASGNHAAGILTM-OH), the EC50 [1] is reported as 20.1 µM, the Ratio [2] is reported as > 50 and the EC50 [3] is reported as > 1000 µM.

Molecule `CC[C@H](C)[C@H](NC(=O)CNC(=O)[C@H](C)NC(=O)[C@H](C)NC(=O)[C@H](Cc1c[nH]cn1)NC(=O)[C@H](CC(N)=O)NC(=O)CNC(=O)[C@H](CO)NC(=O)[C@H](C)NC(=O)[C@H](CCC(N)=O)NC(=O)[C@H](CC(C)C)NC(=O)[C@H](CC(C)C)NC(=O)[C@H](CCCN=C(N)N)NC(=O)[C@H](CCC(N)=O)NC(=O)[C@H](CC(C)C)NC(=O)[C@H](CCCN=C(N)N)NC(=O)CNC(=O)[C@H](CCC(N)=O)NC(=O)[C@H](CC(C)C)NC(=O)[C@@H]1CCCN1)C(=O)N[C@@H](CC(C)C)C(=O)N[C@H](C(=O)N[C@@H](CCSC)C(=O)O)[C@@H](C)O` (H-PLQGRLQRLLQASGNHAAGILTM-OH) has an EC50 [1] of 0.49 µM, a Ratio [2] of 16.9 and an EC50 [3] of 8.28 µM.
